# Test results from ChEMBL document CHEMBL1201862, “PubChem BioAssay data set” (2004).
# Calls of active or inactive are those of the source.
# Legend:
# [1] = blockers of HIV-1 ZM109 envelope-driven cell-cell fusion – HeLa effector, CEM target cells, luciferase, cherry-pick, dose response (AID 652058); type: functional, cell-based;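 also: luciferase signal from HIV-1 Env mediated cell-cell fusion of effector and target cells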
# [2] = HIV-1 AD8 envelope cell-cell fusion blockers – cherry-pick, dose response (AID 652062); type: functional, cell-based;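 also: luciferase signal from cell-cell fusion driven by HIV-1 clade B AD8 Env; potency is for inhibitors of fusion seen as a drop in luminescence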
# [3] = blockers of HIV-1 envelope-mediated cell-cell fusion – cherry-pick, dose response (AID 652057); type: functional, cell-based
# [4] = off-target signal loss in HeLa-CEM21 co-culture – HeLa F-luc CTL cells, cherry-picked, counter-screen for HIV-1 Env fusion inhibitor project, dose response (AID 652040); type: functional, cell-based;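 also: potency for signal decrease marking cytotoxic or nonspecific inhibition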
# [5] = reduction of Shn3 3'UTR-driven luciferase in osteoblasts – cell-based, Clone20 osteoblasts, firefly luciferase, cherry-picked, dose response (AID 624132); type: functional;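 also: firefly luciferase luminescence from reporter carrying the Shn3 3'UTR in osteoblasts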
# [6] = loss of viability in HepG2 cells – cell-based, CellTiter-Glo, cherry-picked, cytotoxicity control for Shn3 inhibitor project, dose response (AID 624134); type: functional
# HEK293 = experiment: EBV LMP1 TES2 canonical NF-kB signalling blockers – cell-based, HEK293, luciferase, cherry-pick, dose response (AID 588343); type: functional; conditions: Homo sapiens
# [7] = biological target: T1, DNA repair protein RAD52 homolog (Homo sapiens, UniProt P43351); type: functional, biochemical
# T1 sequence (P43351 whole entry): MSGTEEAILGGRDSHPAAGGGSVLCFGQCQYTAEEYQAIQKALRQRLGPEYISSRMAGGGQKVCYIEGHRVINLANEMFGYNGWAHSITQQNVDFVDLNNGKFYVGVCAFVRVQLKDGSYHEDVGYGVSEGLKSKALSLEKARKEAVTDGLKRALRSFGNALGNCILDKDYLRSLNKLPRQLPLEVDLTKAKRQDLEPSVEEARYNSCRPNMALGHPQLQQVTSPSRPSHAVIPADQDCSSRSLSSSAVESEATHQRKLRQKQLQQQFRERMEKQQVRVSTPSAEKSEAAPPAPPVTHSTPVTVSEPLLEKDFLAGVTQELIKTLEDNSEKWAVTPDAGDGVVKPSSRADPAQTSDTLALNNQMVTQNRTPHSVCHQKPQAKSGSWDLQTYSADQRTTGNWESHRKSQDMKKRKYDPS
# Cytochrome P450 2D6 = Cytochrome P450 2D6 (Homo sapiens, UniProt P10635);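 also: CYP2D6 member of a cytochrome P450 panel assay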
# Cytochrome P450 1A2 = biological target: T2, Cytochrome P450 1A2 (Homo sapiens, UniProt P05177);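 also: PubChem cytochrome P450 panel assay, CYP1A2 panel member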
# T2 sequence (P05177 whole entry): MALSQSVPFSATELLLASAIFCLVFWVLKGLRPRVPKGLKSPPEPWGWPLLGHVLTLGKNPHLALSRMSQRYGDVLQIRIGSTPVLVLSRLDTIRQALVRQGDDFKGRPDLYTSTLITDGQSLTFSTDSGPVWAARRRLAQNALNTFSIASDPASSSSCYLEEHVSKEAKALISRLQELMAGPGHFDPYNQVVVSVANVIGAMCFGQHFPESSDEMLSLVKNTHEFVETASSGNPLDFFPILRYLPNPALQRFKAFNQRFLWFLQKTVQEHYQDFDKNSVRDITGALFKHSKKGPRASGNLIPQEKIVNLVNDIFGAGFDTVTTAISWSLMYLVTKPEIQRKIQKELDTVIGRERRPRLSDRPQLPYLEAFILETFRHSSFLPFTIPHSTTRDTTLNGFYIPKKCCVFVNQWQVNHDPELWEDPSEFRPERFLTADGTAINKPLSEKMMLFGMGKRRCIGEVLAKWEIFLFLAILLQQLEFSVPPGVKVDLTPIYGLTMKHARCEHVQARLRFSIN
# P388 = experiment: cells; type: functional; conditions: Mus musculus
# P388/ADR = experiment: cells; type: functional; conditions: Mus musculus
# [8] = non-specific 3'UTR reporter inhibition in Clone20-Shn3RL – cell-based, Renilla luciferase, cherry-picked, counter-screen for Shn3 inhibitor project, dose response (AID 624133); type: functional
# [9] = blockade of melanocortin 4 receptor signaling – cell-based, plate reader, cherry pick, counter-screen for LGR2 antagonist project, dose response (AID 743444); type: functional;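 also: transfected HEK 293 cells stimulated with alpha-MSH peptide; potency of inhibitors of the alpha-MSH evoked signal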
# [10] = blockers of bursicon-stimulated LGR2 cAMP reporter – cell-based, HEK293, CRE-luciferase reporter, cherry pick, set 2, dose response (AID 743343); type: functional;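 also: transfected cells were stimulated with diluted bursicon conditioned medium after compound addition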
# [11] = biological target: T3, Polyadenylate-binding protein 1 (Homo sapiens, UniProt P11940); experiment: MLLE domain peptide-binding blockers, IC50 – biochemical, fluorescence polarization, FITC-PAM2 peptide, dose response (AID 602259); type: functional; conditions: read-out: IC50_Mean
# [12] = biological target: T3, Polyadenylate-binding protein 1; experiment: MLLE binding blockers, Cy5 peptide tracer – biochemical, fluorescence polarization, Cy5-PAM2 peptide, secondary, miRNA deadenylation inhibitor project, dose response (AID 602260); type: functional; conditions: read-out: IC50_Mean
# T3 sequence (P11940 whole entry, the tested form may be a part): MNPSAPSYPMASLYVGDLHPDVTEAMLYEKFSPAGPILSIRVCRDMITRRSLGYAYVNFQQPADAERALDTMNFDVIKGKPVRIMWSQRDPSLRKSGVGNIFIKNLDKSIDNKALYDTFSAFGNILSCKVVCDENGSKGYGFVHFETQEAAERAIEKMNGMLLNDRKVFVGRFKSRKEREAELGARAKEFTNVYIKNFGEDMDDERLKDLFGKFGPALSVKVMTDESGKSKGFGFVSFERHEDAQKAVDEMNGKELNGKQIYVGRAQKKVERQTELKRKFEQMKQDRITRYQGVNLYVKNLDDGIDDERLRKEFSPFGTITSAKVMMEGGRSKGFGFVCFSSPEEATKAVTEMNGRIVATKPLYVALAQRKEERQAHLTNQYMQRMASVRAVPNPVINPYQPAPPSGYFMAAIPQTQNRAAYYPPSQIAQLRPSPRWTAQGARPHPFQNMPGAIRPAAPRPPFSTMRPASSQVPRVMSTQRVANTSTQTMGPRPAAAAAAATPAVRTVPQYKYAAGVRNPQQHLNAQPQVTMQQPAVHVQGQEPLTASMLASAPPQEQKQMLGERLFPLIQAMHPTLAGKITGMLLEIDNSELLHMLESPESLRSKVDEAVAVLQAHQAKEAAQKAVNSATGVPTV
# Cytochrome P450 2D6, sequence (P10635 whole entry): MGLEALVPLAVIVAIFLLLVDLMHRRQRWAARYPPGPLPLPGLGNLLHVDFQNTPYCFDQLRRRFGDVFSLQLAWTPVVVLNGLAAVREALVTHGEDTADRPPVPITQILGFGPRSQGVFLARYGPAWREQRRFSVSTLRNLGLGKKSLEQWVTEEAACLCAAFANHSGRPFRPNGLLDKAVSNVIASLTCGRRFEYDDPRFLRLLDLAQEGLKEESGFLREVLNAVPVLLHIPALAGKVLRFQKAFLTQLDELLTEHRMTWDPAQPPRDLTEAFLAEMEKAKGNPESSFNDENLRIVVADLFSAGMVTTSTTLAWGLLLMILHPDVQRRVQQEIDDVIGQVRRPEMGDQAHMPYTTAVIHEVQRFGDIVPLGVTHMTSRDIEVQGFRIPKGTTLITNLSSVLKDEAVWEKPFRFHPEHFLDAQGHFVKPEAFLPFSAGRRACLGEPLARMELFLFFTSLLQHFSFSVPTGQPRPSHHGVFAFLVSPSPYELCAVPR
structure (smiles),measurement,setting,value
CCN(C[C@H]1N[C@@](C)(C(=O)OC)[C@H]2C(=O)N(Cc3ccccc3)C(=O)[C@@H]12)S(=O)(=O)c1ccc(C)cc1,AC50,[1],15 µM (active)
same,AC50,[2],69.3 µM (active)
same,AC50,[3],5.73 µM (active)
same,AC50,[4],21.4 µM (active)
Cn1cc([N+](=O)[O-])c(C(=O)Nc2sc3c(c2C#N)CCC3)n1,AC50,[5],0.88 µM (active)
same,AC50,[6],8.93 µM (active)
CCN1CCN(Cc2ccc(NC(=O)c3ccc(C)c(NC(=O)c4ccno4)c3)cc2C(F)(F)F)CC1,AC50,HEK293,0.0518 µM (active)
CCCNc1nc(Cl)nc(NCc2cccnc2)n1,AC50,[7],4.26 µM (active)
CCC(C)NC(=O)Cn1cnc2sc(C)cc2c1=O (configuration not stated),AC50,Cytochrome P450 2D6,25.1 µM (inconclusive)
same,AC50,Cytochrome P450 1A2,6.31 µM (inconclusive)
C[C@H]1CN([C@@H](C)CO)C(=O)Cc2cc(NC(=O)Cc3ccccc3)ccc2O[C@H]1CN(C)S(=O)(=O)c1cccs1,AC50,[1],2.26 µM (active)
same,AC50,[2],3.35 µM (active)
same,AC50,[3],1.48 µM (active)
same,AC50,[4],2.4 µM (active)
COc1cc(C2c3cc4c(cc3[C@@H](Nc3ccc(F)cc3)C3COC(=O)[C@H]23)OCO4)cc(OC)c1O (some centres not stated),GI50,P388,< 0.01 µM (active)
same,GI50,P388/ADR,0.09 µM (active)
Cc1ccc(S(=O)(=O)N2CCC(=O)N(CCOCc3ccc(C(F)(F)F)cc3)CC2)cc1,AC50,[1],3.68 µM (active)
same,AC50,[2],6.53 µM (active)
same,AC50,[3],5.79 µM (active)
same,AC50,[4],14.6 µM (active)
O=C(c1ccc2ncsc2c1)N1CCN(c2nc3ccccc3s2)CC1,AC50,[1],8.38 µM (active)
same,AC50,[2],8.65 µM (active)
same,AC50,[3],4.18 µM (active)
same,AC50,[4],3.19 µM (active)
Cc1ccccc1CN1CC2=C(CCN(Cc3ccccc3)C2=O)N2CCN=C12,AC50,[5],2.41 µM (active)
same,AC50,[6],3.31 µM (active)
same,AC50,[8],29.6 µM (active)
COc1ccc(OC)c(CN2C(=O)c3ccccc3C2c2nnnn2-c2c(C)cccc2C)c1 (configuration not stated),AC50,[1],3.93 µM (active)
same,AC50,[3],4.69 µM (active)
same,AC50,[4],19 µM (active)
CCCCN1C2CCCC1CC(NC(=O)C1CCCCC1)C2 (configuration not stated),AC50,HEK293,237 µM (active)
O=C(O)c1ccc(N/N=C/c2ccc3ncccc3c2)cc1,AC50,[9],3.72 µM (active)
same,AC50,[10],3.18 µM (active)
same,AC50,HEK293,2.54 µM (active)
COc1ccc(C(N)=S)c(OC)c1,IC50,[11],> 66 µM (inactive)
same,AC50,[7],9.26 µM (active)
same,IC50,[12],> 66 µM (inactive)
